# Molecular target: T1, PIP4K2C (Homo sapiens, UniProt Q8TBX8)
# T1 sequence (Q8TBX8 1-421): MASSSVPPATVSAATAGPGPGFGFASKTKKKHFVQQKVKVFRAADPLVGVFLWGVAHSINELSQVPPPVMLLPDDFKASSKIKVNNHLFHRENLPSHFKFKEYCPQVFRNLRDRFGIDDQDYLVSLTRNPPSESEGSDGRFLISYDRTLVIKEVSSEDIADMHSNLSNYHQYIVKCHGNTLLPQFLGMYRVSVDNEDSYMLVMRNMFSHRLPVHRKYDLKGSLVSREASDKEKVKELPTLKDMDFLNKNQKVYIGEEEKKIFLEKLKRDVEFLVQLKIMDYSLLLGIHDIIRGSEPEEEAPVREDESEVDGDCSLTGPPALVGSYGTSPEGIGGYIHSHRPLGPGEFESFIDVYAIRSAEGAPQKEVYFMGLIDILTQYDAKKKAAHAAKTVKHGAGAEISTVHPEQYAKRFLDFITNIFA
# Assay: HiBiT PIP4K2C degradation assay in MOLT-4 cells (endogenous PIP4K2C C-terminally tagged with HiBiT)
# Format: cell-based
# Parameters: untagged in primary human PBMCs and monocyte-derived dendritic cells
# Settings: 6 hours of incubation time, rather than 24 hours; MOLT-4, top concentration 10 micromolar; read-out: HiBIT-degradation MOLT4 PIP4k2C DC50 (6 hours, marked *)
# How it was run: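 In a CRISPR-engineered MOLT-4 clone carrying HiBiT-tagged PIP4K2C, degradation was assessed after 24 or 6 hours of dosing (10 micromolar top, 3-fold steps). Luminescence from lytic HiBiT detection was fitted to obtain DC50.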
row,DC50 [nM],SMILES
1,< 500,"O=C1CCC(n2c(=O)oc3cc(C4CCN(CCC5CCN(C(=O)[C@@H]6CCC[C@H](Nc7ncc(F)c(-c8cccc(-n9ccccc9=O)c8)n7)C6)CC5)CC4)ccc32)C(=O)N1 (stereo partly drawn) [Compound 350, 3-(6-(1-(2-(1-((1R,3S)-3-((5-fluoro-4-(3-(2-oxopyridin-1(2H)-yl)phenyl)pyrimidin-2-yl)amino)cyclohexane-1-carbonyl)piperidin-4-yl)ethyl)piperidin-4-yl)-2-oxobenzo[d]oxazol-3 (2H)-yl)piperidine-2,6-dione]"

# Same assay, conditions: 24 hours incubation, MOLT-4, top concentration 10 micromolar; read-out: HiBIT-degradation MOLT4 PIP4k2C 24 hours DC50
row,DC50 [nM],SMILES
1,> 5000,"Cn1nc(N2CCC(=O)NC2=O)c2ccc(C3CCN(CC(=O)N4CCC(O)(C(=O)N5CCC(Nc6ncc(F)c(-c7cccc(-n8ccccc8=O)c7)n6)CC5)CC4)CC3)cc21 [Compound 346, 1-(6-(1-(2-(4-(4-((5-fluoro-4-(3-(2-oxopyridin-1(2H)-yl)phenyl)pyrimidin-2-yl)amino)piperidine-1-carbonyl)-4-hydroxypiperidin-1-yl)-2-oxoethyl)piperidin-4-yl)-1-methyl-1H-indazol-3-yl)dihydropyrimidine-2,4(1H,3H)-dione]"
2,< 500,"Cn1nc(C2CCC(=O)NC2=O)c2ccc(C3CCN(CCC4CCN(C(=O)[C@@H]5CCC[C@H](Nc6ncc(F)c(-c7cccc(-n8ccccc8=O)c7)n6)C5)CC4)CC3)cc21 (stereo partly drawn) [Compound 351, 3-(6-(1-(2-(1-((1R,3S)-3-((5-fluoro-4-(3-(2-oxopyridin-1(2H)-yl)phenyl)pyrimidin-2-yl)amino)cyclohexane-1-carbonyl)piperidin-4-yl)ethyl)piperidin-4-yl)-1-methyl-1H-indazol-3-yl)piperidine-2,6-dione]"
3,< 500,"O=C1CCC(n2c(=O)oc3cc(C4CCN(C5CCN(CCC(=O)N6CCC(Nc7ncc(F)c(-c8cccc(-n9ccccc9=O)c8)n7)CC6)CC5)CC4)ccc32)C(=O)N1 (stereo not shown) [Compound 353, 3-(6-(1′-(3-(4-((5-fluoro-4-(3-(2-oxopyridin-1(2H)-yl)phenyl)pyrimidin-2-yl)amino)piperidin-1-yl)-3-oxopropyl)-[1,4′-bipiperidin]-4-yl)-2-oxobenzo[d]oxazol-3 (2H)-yl)piperidine-2,6-dione]"
4,< 500,"Cc1ccc(=O)n(-c2cccc(-c3nc(N[C@H]4CCC[C@@H](C(=O)N5CCC(CCN6CCC(c7ccc8c(c7)oc(=O)n8C7CCC(=O)NC7=O)CC6)CC5)C4)ncc3F)c2)c1 (stereo partly drawn) [Compound 354, 3-(6-(1-(2-(1-((1R,3S)-3-((5-fluoro-4-(3-(5-methyl-2-oxopyridin-1(2H)-yl)phenyl)pyrimidin-2-yl)amino)cyclohexane-1-carbonyl)piperidin-4-yl)ethyl)piperidin-4-yl)-2-oxobenzo[d]oxazol-3 (2H)-yl)piperidine-2,6-dione]"
5,500 to 1000,"O=C1CCC(n2c(=O)oc3cc(C4CCN(CCC5CCN(C(=O)[C@@H]6CCC[C@H](Nc7ncc(F)c(-c8cccc(N9CCCOC9=O)c8)n7)C6)CC5)CC4)ccc32)C(=O)N1 (stereo partly drawn) [Compound 355, 3-(6-(1-(2-(1-((1R,3S)-3-((5-fluoro-4-(3-(2-oxo-1,3-oxazinan-3-yl)phenyl)pyrimidin-2-yl)amino)cyclohexane-1-carbonyl)piperidin-4-yl)ethyl)piperidin-4-yl)-2-oxobenzo[d]oxazol-3 (2H)-yl)piperidine-2,6-dione]"
6,< 500,"O=C1CCC(n2c(=O)oc3cc(C4CCN(CCC5CCN(C(=O)[C@@H]6CCC[C@H](Nc7ncc(F)c(-c8cccc(N9CCCCC9=O)c8)n7)C6)CC5)CC4)ccc32)C(=O)N1 (stereo partly drawn) [Compound 356, 3-(6-(1-(2-(1-((1R,3S)-3-((5-fluoro-4-(3-(2-oxopiperidin-1-yl)phenyl)pyrimidin-2-yl)amino)cyclohexane-1-carbonyl)piperidin-4-yl)ethyl)piperidin-4-yl)-2-oxobenzo[d]oxazol-3 (2H)-yl)piperidine-2,6-dione]"
7,< 500,"O=C1CCC(n2c(=O)oc3cc(C4CCN(CCC5CCN(C(=O)[C@@H]6CCC[C@H](Nc7ncc(F)c(-c8cccc(-n9cc(C(F)(F)F)ccc9=O)c8)n7)C6)CC5)CC4)ccc32)C(=O)N1 (stereo partly drawn) [Compound 357, 3-(6-(1-(2-(1-((1R,3S)-3-((5-fluoro-4-(3-(2-oxo-5-(trifluoromethyl)pyridin-1(2H)-yl)phenyl)pyrimidin-2-yl)amino)cyclohexane-1-carbonyl)piperidin-4-yl)ethyl)piperidin-4-yl)-2-oxobenzo[d]oxazol-3 (2H)-yl)piperidine-2,6-dione]"
8,< 500,"O=C1CCC(n2c(=O)oc3cc(N4CCC(CN5CCC(CC(=O)N[C@H]6CC[C@H](Nc7ncc(F)c(-c8cccc(-n9ccccc9=O)c8)n7)CC6)CC5)CC4)ccc32)C(=O)N1 (stereo partly drawn) [Compound 358, trans-2-(1-((1-(3-(2,6-dioxopiperidin-3-yl)-2-oxo-2,3-dihydrobenzo[d]oxazol-6-yl)piperidin-4-yl)methyl)piperidin-4-yl)-N-(4-((5-fluoro-4-(3-(2-oxopyridin-1(2H)-yl)phenyl)pyrimidin-2-yl)amino)cyclohexyl)acetamide]"
9,< 500,"O=C1CCC(n2c(=O)oc3cc(N4CCC(CN5CCN(CC(=O)N[C@H]6CC[C@H](Nc7ncc(F)c(-c8cccc(-n9ccccc9=O)c8)n7)CC6)CC5)CC4)ccc32)C(=O)N1 (stereo partly drawn) [Compound 360, 2-(4-((1-(3-(2,6-dioxopiperidin-3-yl)-2-oxo-2,3-dihydrobenzo[d]oxazol-6-yl)piperidin-4-yl)methyl)piperazin-1-yl)-N-(trans-4-((5-fluoro-4-(3-(2-oxopyridin-1(2H)-yl)phenyl)pyrimidin-2-yl)amino)cyclohexyl)acetamide]"
10,< 500,"O=C1CCC(n2c(=O)oc3cc(C4CCN(CC5CCN(CC(=O)N[C@H]6CC[C@H](Nc7ncc(F)c(-c8cccc(N9CCCOC9=O)c8)n7)CC6)CC5)CC4)ccc32)C(=O)N1 (stereo partly drawn) [Compound 362, trans-2-(4-((4-(3-(2,6-dioxopiperidin-3-yl)-2-oxo-2,3-dihydrobenzo[d]oxazol-6-yl)piperidin-1-yl)methyl)piperidin-1-yl)-N-(4-((5-fluoro-4-(3-(2-oxo-1,3-oxazinan-3-yl)phenyl)pyrimidin-2-yl)amino)cyclohexyl)acetamide]"
11,< 500,"O=C1CCC(n2c(=O)oc3cc(C4CCN(CC5CCN(CC(=O)N[C@H]6CC[C@H](Nc7ncc(F)c(-c8cccc(N9CCOC9=O)c8)n7)CC6)CC5)CC4)ccc32)C(=O)N1 (stereo partly drawn) [Compound 363, trans-2-[4-[[4-[3-(2,6-dioxo-3-piperidyl)-2-oxo-1,3-benzoxazol-6-yl]-1-piperidyl]methyl]-1-piperidyl]-N-[4-[[5-fluoro-4-[3-(2-oxooxazolidin-3-yl)phenyl]pyrimidin-2-yl]amino]cyclohexyl]acetamide]"

# Same assay, conditions: read-out: HiBIT-degradation MOLT4 PIP4k2C 24 hours DC50; 24 hours incubation, MOLT-4, top concentration 10 micromolar
row,SMILES,DC50 [nM]
1,"O=C1CCC(n2c(=O)oc3cc(C4CCN(CC5CCN(CC(=O)N[C@H]6CC[C@H](Nc7ncc(F)c(C8CCCN(C(=O)C9CC9)C8)n7)CC6)CC5)CC4)ccc32)C(=O)N1 (stereo partly drawn) [Compound 359, trans-N-(4-((4-(1-(cyclopropanecarbonyl)piperidin-3-yl)-5-fluoropyrimidin-2-yl)amino)cyclohexyl)-2-(4-((4-(3-(2,6-dioxopiperidin-3-yl)-2-oxo-2,3-dihydrobenzo[d]oxazol-6-yl)piperidin-1-yl)methyl)piperidin-1-yl)acetamide]",< 500

# Source: US20260355196A1, “INHIBITORS AND DEGRADERS OF PIP4K PROTEIN” (Larkspur Biosciences, Inc., priority 2023, published 2026)
